Drawing on the supplement of paper PMC10307832, this text covers relative viability for five cell lines.

What all share (test): relative viability (nuclei count vs DMSO), 5 days (fraction); higher = more cells survive
Compound in one experiment: O=C(C[C@H]1NCCC[C@@H]1O)Cn1cnc2cc(Br)c(Cl)cc2c1=O (racemic) [Halofuginone]
In short, it runs like this: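 A plate was accepted only when its control CV was below 25% and the cells had doubled at least once. Viability is defined from nuclear counts as treated wells divided by vehicle wells, with the median taken across plates. That median covers lung cancer cell lines grown in 1536-well plates, dosed by pinning at five √10-spaced library-drug concentrations, and counted in MetaXpress from 4× Hoechst images after 5 days.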

Compound in the experiment “Cediranib + Dasatinib”: COc1cc2c(Oc3ccc4[nH]c(C)cc4c3F)ncnc2cc1OCCCN1CCCC1 [Cediranib] + Cc1nc(Nc2ncc(C(=O)Nc3c(C)cccc3Cl)s2)cc(N2CCN(CCO)CC2)n1 [Dasatinib] (partner 0.075 µM)
In short, it runs like this: (§1)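 Dosing by pin tool came one day after lung cancer cell lines were seeded in 1536-well plates, using either one drug or a fixed anchor-drug dose plus five library-drug doses (not always all listed) in √10 steps. After 5 days, nuclei were counted on 4× images. Relative viability is treated-well nuclei count divided by vehicle-well nuclei count, and values are medians of duplicate plates.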

Compound in the experiment “Decitabine + Palbociclib”: Nc1ncn([C@H]2C[C@H](O)[C@@H](CO)O2)c(=O)n1 [Decitabine] + CC(=O)c1c(C)c2cnc(Nc3ccc(N4CCNCC4)cn3)nc2n(C2CCCC2)c1=O [Palbociclib] (partner 0.5 µM)
In short, it runs like this: as §1

Compound in the experiment “Decitabine + Pictilisib”: Nc1ncn([C@H]2C[C@H](O)[C@@H](CO)O2)c(=O)n1 [Decitabine] + CS(=O)(=O)N1CCN(Cc2cc3nc(-c4cccc5[nH]ncc45)nc(N4CCOCC4)c3s2)CC1 [Pictilisib] (partner 1 µM)
The essentials:
as §1

For LK-2, the relative viability was determined as 0.91 with Halofuginone (0.001 µM); 0.927 with Halofuginone (0.003162 µM); 1.03 with Halofuginone (0.01 µM); 1.02 with Halofuginone (0.03162 µM); 0.741 with Halofuginone (0.1 µM); 0.283 with Cediranib + Dasatinib (first compound 0.04 µM). For the same cell line, the relative viability came to 0.224 with Cediranib + Dasatinib (first compound 0.1265 µM); 0.331 in the experiment with Cediranib + Dasatinib (first compound 0.4 µM); 0.212 in the experiment with Cediranib + Dasatinib (first compound 1.265 µM); 0.262 with Cediranib + Dasatinib (first compound 4 µM); 0.655 with Decitabine + Palbociclib (first compound 0.04 µM); 0.66 with Decitabine + Palbociclib (first compound 0.1265 µM). Besides, the relative viability with Decitabine + Palbociclib (first compound 0.4 µM) is 0.327; with Decitabine + Palbociclib (first compound 1.265 µM), 0.236; with Decitabine + Palbociclib (first compound 4 µM), 0.238; with Decitabine + Pictilisib (first compound 0.1265 µM), 0.607; in the experiment with Decitabine + Pictilisib (first compound 0.4 µM) it was 0.505; with Decitabine + Pictilisib (first compound 1.265 µM), 0.401. Besides, the relative viability in the experiment with Decitabine + Pictilisib (first compound 4 µM) is 0.396.

Take EKVX: the relative viability turned out to be 1.06 with Halofuginone (0.001 µM); 0.928 with Halofuginone (0.003162 µM); 0.989 in the experiment with Halofuginone (0.01 µM); 1 in the experiment with Halofuginone (0.03162 µM); 0.858 in the experiment with Halofuginone (0.1 µM); 0.534 in the experiment with Cediranib + Dasatinib (first compound 0.04 µM). For the same cell line, the relative viability worked out at 0.625 in the experiment with Cediranib + Dasatinib (first compound 0.1265 µM); 0.564 with Cediranib + Dasatinib (first compound 0.4 µM); 0.582 with Cediranib + Dasatinib (first compound 1.265 µM); 0.591 with Cediranib + Dasatinib (first compound 4 µM); 0.3 with Decitabine + Palbociclib (first compound 0.04 µM); 0.372 with Decitabine + Palbociclib (first compound 0.1265 µM). Further, the relative viability with Decitabine + Palbociclib (first compound 0.4 µM) worked out at 0.405; in the experiment with Decitabine + Palbociclib (first compound 1.265 µM) it was 0.259; with Decitabine + Palbociclib (first compound 4 µM), 0.235; with Decitabine + Pictilisib (first compound 0.04 µM), 0.37; with Decitabine + Pictilisib (first compound 0.1265 µM), 0.387; in the experiment with Decitabine + Pictilisib (first compound 0.4 µM), 0.391. For the same cell line, the results for the relative viability in the experiment with Decitabine + Pictilisib (first compound 1.265 µM) and in the experiment with Decitabine + Pictilisib (first compound 4 µM) were 0.252 and 0.241, respectively.

On to NCI-H2009, for which the relative viability with Halofuginone (0.001 µM) was determined as 1.04; with Halofuginone (0.003162 µM) it was 1.18; in the experiment with Halofuginone (0.01 µM), 0.948; in the experiment with Halofuginone (0.03162 µM), 0.883; with Halofuginone (0.1 µM), 0.597; in the experiment with Cediranib + Dasatinib (first compound 0.04 µM), 0.311. The relative viability with Cediranib + Dasatinib (first compound 0.1265 µM) is 0.523; with Cediranib + Dasatinib (first compound 0.4 µM) it was 0.301; in the experiment with Cediranib + Dasatinib (first compound 1.265 µM), 0.297; with Cediranib + Dasatinib (first compound 4 µM), 0.309; with Decitabine + Palbociclib (first compound 0.04 µM) it was 0.43; with Decitabine + Palbociclib (first compound 0.1265 µM), 0.231. Also, the relative viability with Decitabine + Palbociclib (first compound 0.4 µM) came out at 0.116; with Decitabine + Palbociclib (first compound 1.265 µM), 0.193; with Decitabine + Palbociclib (first compound 4 µM) it was 0.275; in the experiment with Decitabine + Pictilisib (first compound 0.04 µM) it was 0.773; with Decitabine + Pictilisib (first compound 0.1265 µM) it was 0.672; with Decitabine + Pictilisib (first compound 0.4 µM), 0.351. The relative viability with Decitabine + Pictilisib (first compound 1.265 µM) was 0.386; with Decitabine + Pictilisib (first compound 4 µM), 0.245.

Take NCI-H838: the relative viability with Halofuginone (0.001 µM) stood at 1; in the experiment with Halofuginone (0.003162 µM), 1; in the experiment with Halofuginone (0.01 µM), 0.945; with Halofuginone (0.03162 µM) it was 0.765; with Halofuginone (0.1 µM), 0.409; with Cediranib + Dasatinib (first compound 0.04 µM) it was 0.292. Further, the relative viability was found to be 0.268 with Cediranib + Dasatinib (first compound 0.1265 µM); 0.285 with Cediranib + Dasatinib (first compound 0.4 µM); 0.241 with Cediranib + Dasatinib (first compound 1.265 µM); 0.315 in the experiment with Cediranib + Dasatinib (first compound 4 µM); 0.259 with Decitabine + Palbociclib (first compound 0.04 µM); 0.275 with Decitabine + Palbociclib (first compound 0.1265 µM). The relative viability in the experiment with Decitabine + Palbociclib (first compound 0.4 µM) was determined as 0.194; with Decitabine + Palbociclib (first compound 1.265 µM) it was 0.211; with Decitabine + Palbociclib (first compound 4 µM) it was 0.199; with Decitabine + Pictilisib (first compound 0.04 µM), 0.415; in the experiment with Decitabine + Pictilisib (first compound 0.1265 µM), 0.357; with Decitabine + Pictilisib (first compound 0.4 µM), 0.308. Also, the relative viability with Decitabine + Pictilisib (first compound 1.265 µM) was determined as 0.24; in the experiment with Decitabine + Pictilisib (first compound 4 µM) it was 0.226.

As to NCI-H2085, the relative viability with Halofuginone (0.001 µM) was found to be 1.03; with Halofuginone (0.003162 µM) it was 1.07; with Halofuginone (0.01 µM) it was 0.989; with Halofuginone (0.03162 µM), 1.04; with Halofuginone (0.1 µM), 0.935; in the experiment with Cediranib + Dasatinib (first compound 0.04 µM) it was 0.257. Moreover, the relative viability with Cediranib + Dasatinib (first compound 0.1265 µM) is 0.26; in the experiment with Cediranib + Dasatinib (first compound 0.4 µM) it was 0.273; with Cediranib + Dasatinib (first compound 1.265 µM) it was 0.272; with Cediranib + Dasatinib (first compound 4 µM), 0.23; in the experiment with Decitabine + Palbociclib (first compound 0.04 µM), 0.465; with Decitabine + Palbociclib (first compound 0.1265 µM) it was 0.403. In addition, the relative viability came to 0.408 in the experiment with Decitabine + Palbociclib (first compound 0.4 µM); 0.335 with Decitabine + Palbociclib (first compound 1.265 µM); 0.395 in the experiment with Decitabine + Palbociclib (first compound 4 µM); 0.454 with Decitabine + Pictilisib (first compound 0.04 µM); 0.462 in the experiment with Decitabine + Pictilisib (first compound 0.1265 µM); 0.408 with Decitabine + Pictilisib (first compound 0.4 µM). The relative viability with Decitabine + Pictilisib (first compound 1.265 µM) stood at 0.403; in the experiment with Decitabine + Pictilisib (first compound 4 µM) it was 0.404.
